# Data reported in article PMC6021034, “Novel FFA1 (GPR40) agonists containing spirocyclic periphery: polar azine periphery as a driver of potency” (Journal of Enzyme Inhibition and Medicinal Chemistry, 2016).
# pEC50: −log10 of the molar value. Like-named read-outs stand apart in the source and are kept apart here.
# Legend:
# FFA1 [1] = system: FFA1; parameters: method as in PMID 24900210; details: cited from earlier work
# human GPR40 = human GPR40 (Homo sapiens, UniProt O14842); assay: Calcium flux (FLIPR, Fluo-8) agonist assay in CHO cells stably expressing human GPR40; assay type: cell-based; details: for % FFA1 activation at 5 μM: relative to GPR40 activation by 20 μM of GW9509, n = 2
# Chain of human GPR40 (O14842 whole entry): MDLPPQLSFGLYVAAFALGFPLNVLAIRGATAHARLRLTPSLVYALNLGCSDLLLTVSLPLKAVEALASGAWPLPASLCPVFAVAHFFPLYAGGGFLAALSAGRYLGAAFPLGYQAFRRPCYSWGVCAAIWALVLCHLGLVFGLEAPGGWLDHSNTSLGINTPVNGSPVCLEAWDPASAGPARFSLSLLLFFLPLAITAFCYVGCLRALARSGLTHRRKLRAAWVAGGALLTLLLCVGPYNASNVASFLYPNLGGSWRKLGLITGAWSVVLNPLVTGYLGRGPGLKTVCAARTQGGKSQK
# Method: Determination of agonistic activity of compounds against FFA1 (GPR40) receptor
# CHO cells stably expressing human GPR40 (stable CHO-GPR40 line created at Enamine Ltd., Kyiv, Ukraine) were seeded (12 500 cells/well) into 384-well black-wall, clear-bottom microtiter plates 24 h prior to assay. Cells were loaded for 1 h with fluorescent calcium dye (Fluo-8 Calcium Assay kit, Abcam, ab112129, Cambridge, UK) and tested using fluorometric imaging plate reader (FLIPR Tetra® High Throughput Cellular Screening System, Molecular Devices Corp., Sunnyvale, CA). Maximum change in fluorescence over base line was used to determine agonist response. A potent and selective agonist for FFA1 (GPR40) GW9508 (Selleckchem, S8014) was tested with the test compounds as a positive control. Concentration response curve data were fitted using Molecular Devices ScreenWorks® System Control Software (Molecular Devices). The half-maximal effective concentration was determined from these curves plotted in “% FFA1 activation − log[drug]” coordinates and % maximum efficacy was related to that of the reference compounds GW9508.
# FFA1 [2] = details: cited from earlier work
# [3] = dose-response (% FFA1 activation) mode, read-out: EC50
% FFA1 activation at 5 μM (human GPR40) [%],pEC50 (human GPR40; [3]),Compound,further results
11.6,< 4.70,"Cl.Cl.O=C(O)CCc1ccc(OCc2ccc(CN3CCC4(CC3)CC(CC(=O)NCc3cccnc3)CCO4)cc2)cc1 (stereo not shown) [Compound 4i, 3-[4-({4-[(4-{2-Oxo-2-[(pyridin-3-ylmethyl)amino]ethyl}-1-oxa-9-azaspiro[5.5]undec-9-yl)methyl]benzyl}oxy)phenyl]propanoic acid dihydrochloride]",–
13.6,< 4.70,"Cl.Cl.O=C(O)CCc1ccc(OCc2ccc(CN3CCC4(CC3)CC(Oc3ccncc3)CCO4)cc2)cc1 (stereo not shown) [Compound 4d, 3-{4-[(4-{[4-(Pyridin-4-yloxy)-1-oxa-9-azaspiro[5.5]undec-9-yl]methyl}benzyl)oxy]phenyl}propanoic acid dihydrochloride]",–
10.0,< 4.70,"Cl.Cl.O=C(O)CCc1ccc(OCc2ccc(CN3CCC4(CC3)CC(CC(=O)NCc3ccncc3)CCO4)cc2)cc1 (stereo not shown) [Compound 4h, 3-[4-({4-[(4-{2-Oxo-2-[(pyridin-4-ylmethyl)amino]ethyl}-1-oxa-9-azaspiro[5.5]undec-9-yl)methyl]benzyl}oxy)phenyl]propanoic acid dihydrochloride]",–
80.0,5.79,"Cl.Cl.O=C(O)CCc1ccc(OCc2ccc(CN3CCC4(CC3)CC(Oc3ncccn3)CCO4)cc2)cc1 (stereo not shown) [Compound 4b, 3-{4-[(4-{[4-(Pyrimidin-2-yloxy)-1-oxa-9-azaspiro[5.5]undec-9-yl]methyl}benzyl)oxy]phenyl} propanoic aciddihydrochloride]","% Efficacy (human GPR40; maximum efficacy relative to GPR40 activation by 20 μM of GW9509, n = 2): 80%"
9.9,< 4.70,"CNC(=O)CC1CCOC2(CCN(Cc3ccc(COc4ccc(CCC(=O)O)cc4)cc3)CC2)C1.Cl (stereo not shown) [Compound 4g, 3-(4-{[4-({4-[2-(Methylamino)-2-oxoethyl]-1-oxa-9-azaspiro[5.5]undec-9-yl}methyl)benzyl]oxy}phenyl)propanoic acid hydrochloride]",–
61.4,–,"Cl.Cl.O=C(O)CCc1ccc(OCc2ccc(CN3CCC4(CC3)CC(Oc3ccccn3)CCO4)cc2)cc1 (stereo not shown) [Compound 4c, 3-{4-[(4-{[4-(Pyridin-2-yloxy)-1-oxa-9-azaspiro[5.5]undec-9-yl]methyl}benzyl)oxy]phenyl}propanoic acid dihydrochloride]","Emax (human GPR40; CHO, maximum efficacy relative to GPR40 activation by 20 μM of GW9509, n = 2): 61%; pEC50 (human GPR40; Table 2, compounds investigated in this work, read-out: FFA1 EC50): 6.05"

# The next lines start with the compound.
Compound,% FFA1 activation at 5 μM (human GPR40) [%],pEC50 (human GPR40; [3]),further results
"Cc1cc(OCCCS(C)(=O)=O)cc(C)c1-c1cccc(COc2ccc3c(c2)OC[C@H]3CC(=O)O)c1 [TAK-875, fasiglifam]",–,–,pEC50 (FFA1 [1]): 7.85
"Cl.Cl.O=C(O)CCc1ccc(OCc2ccc(CN3CCC4(CC3)CC(N3CCCC3)CCO4)cc2)cc1 (stereo not shown) [Compound 4e, 3-[4-({4-[(4-Pyrrolidin-1-yl-1-oxa-9-azaspiro[5.5]undec-9-yl)methyl]benzyl}oxy)phenyl]propanoic acid dihydrochloride]",9.1,< 4.70,–
3-{4-[(4-{[4-(Pyrazin-2-yloxy)-1-oxa-9-azaspiro[5.5]undec-9-yl]methyl}benzyl)oxy]phenyl}propanoic acid dihydrochloride [Compound 4a],32.5,–,–
O=C(O)CCc1ccc(OCc2ccc(CN3CCC4(CCCCO4)CC3)cc2)cc1 [Compound 7],–,–,pEC50 (FFA1 [2]; reported earlier): < 4.70; FFA1 agonist activity (in words) (FFA1 [2]; tested earlier): inactive
"Cl.Cl.O=C(O)CCc1ccc(OCc2ccc(CN3CCC4(CC3)CC(N3CCOCC3)CCO4)cc2)cc1 (stereo not shown) [Compound 4f, 3-[4-({4-[(4-Morpholin-4-yl-1-oxa-9-azaspiro[5.5]undec-9-yl)methyl]benzyl}oxy)phenyl]propanoic acid dihydrochloride]",10.2,< 4.70,–
